# Experimental data from patent US10722501B2 (BAYER AKTIENGESELLSCHAFT, priority 2016, dated 2020).
# Molecular target: T1, recombinant full-length human prolyl endopeptidase (PREP) (Homo sapiens, UniProt P48147)
# T1 construct: To recombinant full-length human prolyl endopeptidase (PREP, R&D-Systems, 4308-SE); purchased R&D-Systems 4308-SE
# T1 sequence (P48147 1-710): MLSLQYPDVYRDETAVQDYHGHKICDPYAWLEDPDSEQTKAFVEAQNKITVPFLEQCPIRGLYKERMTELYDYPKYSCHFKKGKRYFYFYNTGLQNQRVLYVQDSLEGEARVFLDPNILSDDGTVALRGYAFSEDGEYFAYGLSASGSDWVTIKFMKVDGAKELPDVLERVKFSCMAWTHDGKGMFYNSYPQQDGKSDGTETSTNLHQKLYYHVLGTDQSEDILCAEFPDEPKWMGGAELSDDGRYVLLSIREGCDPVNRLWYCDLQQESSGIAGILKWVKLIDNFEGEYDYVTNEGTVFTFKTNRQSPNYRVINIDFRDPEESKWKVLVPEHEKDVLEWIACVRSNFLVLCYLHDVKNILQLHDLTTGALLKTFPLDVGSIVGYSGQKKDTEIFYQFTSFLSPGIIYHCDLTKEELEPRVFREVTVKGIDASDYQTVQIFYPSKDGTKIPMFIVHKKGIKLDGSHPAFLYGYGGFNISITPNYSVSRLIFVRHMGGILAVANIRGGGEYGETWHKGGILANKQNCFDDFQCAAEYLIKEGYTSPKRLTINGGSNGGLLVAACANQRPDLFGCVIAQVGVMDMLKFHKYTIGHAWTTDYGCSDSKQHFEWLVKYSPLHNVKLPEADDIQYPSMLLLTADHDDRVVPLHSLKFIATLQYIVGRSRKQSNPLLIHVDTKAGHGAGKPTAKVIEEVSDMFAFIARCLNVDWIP
# Test: Biochemical human prolyl endopeptidase (PREP) assay with fluorescently labelled substrate
# Settings: substrate Z-Gly-Pro-AMC 50 μM, 32° C., 60 min; some as mean values from multiple independent determinations
# In short: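 0.4 nM (final, example) recombinant PREP in pH 7.5 Tris buffer with EDTA, GSH, BSA and Brij-35; compounds at 1 nM to 30 μM. Reaction started with 50 μM Z-Gly-Pro-AMC and followed by fluorescence (ex 360/em 465 nm) at 32° C for 60 min. IC50 interpolated from percent activity based on initial slopes.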
row,IC50 [nM],SMILES
1,28.4,"Cc1ccc(Cn2nc3n(c2=O)C(C(=O)N2C[C@H]4C[C@H]4C2)CCC3)cc1 (mixture of isomers) [Example 126, (5RS)-5-[(cis)-3-Azabicyclo[3.1.0]hex-3-ylcarbonyl]-2-(4-methylbenzyl)-5,6,7,8-tetrahydro[1,2,4]triazolo[4,3-a]pyridin-3(2H)-one]"
2,70,"Cc1ccc(Cn2nc3n(c2=O)C(C(=O)N2CCC(F)(CO)C2)CCC3)cc1 (mixture of isomers) [Example 147, (5S)-5-{[(3RS)-3-Fluoro-3-(hydroxymethyl)pyrrolidin-1-yl]carbonyl}-2-(4-methylbenzyl)-5,6,7,8-tetrahydro[1,2,4]triazolo[4,3-a]pyridin-3(2H)-one]"
3,1.85,"O=C([C@@H]1CCCc2nn(Cc3ccc(Cl)nc3)c(=O)n21)N1CCC(F)(F)C1 [Example 423, (5S)-2-[(6-Chloropyridin-3-yl)methyl]-5-[(3,3-difluoropyrrolidin-1-yl)carbonyl]-5,6,7,8-tetrahydro[1,2,4]triazolo[4,3-a]pyridin-3(2H)-one]"
4,6.4,"O=C([C@@H]1CCCc2nn(Cc3ccc(Cl)nc3)c(=O)n21)N1CC(F)C(F)C1 (single isomer, unassigned) [Example 552]"
5,1.1,"O=C(C1CCC(C(F)(F)F)c2nn(Cc3ccc(C(F)(F)F)nc3)c(=O)n21)N1CC[C@H](F)C1 (mixture of isomers) [Example 271, (5RS,8RS)-5-{[(3S)-3-Fluoropyrrolidin-1-yl]carbonyl}-8-(trifluoromethyl)-2-{[6-(trifluoromethyl)pyridin-3-yl]methyl}-5,6,7,8-tetrahydro[1,2,4]triazolo[4,3-a]pyridin-3(2H)-one]"
6,24,"CC(C)(C)OC(=O)c1ccc(Cn2nc3n(c2=O)C(C(=O)N2CCCC2)CCC3)cc1 (racemic) [Example 28, tert-Butyl 4-{[(5RS)-3-oxo-5-(pyrrolidin-1-ylcarbonyl)-5,6,7,8-tetrahydro[1,2,4]triazolo[4,3-a]pyridin-2(3H)-yl]methyl}benzoate]"
7,0.068,O=C([C@@H]1CCCc2nn(CC3(c4ccc(F)cc4F)CC3)c(=O)n21)N1CC[C@H](F)C1 [Example 358]
8,4.4,"O=C([C@@H]1CCCc2nn(Cc3nnc(C(F)(F)F)o3)c(=O)n21)N1CC[C@H](F)C1 [Example 544, (5S)-5-{[(3S)-3-Fluoropyrrolidin-1-yl]carbonyl}-2-{[5-(trifluoromethyl)-1,3,4-oxadiazol-2-yl]methyl}-5,6,7,8-tetrahydro[1,2,4]triazolo[4,3-a]pyridin-3(2H)-one]"
9,120,"O=C(C1CC(C(F)(F)F)Cc2nn(Cc3ccnc(C(F)(F)F)c3F)c(=O)n21)N1CC(F)C1 (single isomer, unassigned) [Example 253, (5RS,7RS)-5-[(3-Fluoroazetidin-1-yl)carbonyl]-2-{[3-fluoro-2-(trifluoromethyl)pyridin-4-yl]methyl}-7-(trifluoromethyl)-5,6,7,8-tetrahydro[1,2,4]triazolo[4,3-a]pyridin-3(2H)-one]"
10,4.2,"COc1ccc(CCn2nc3n(c2=O)[C@H](C(=O)N2CCC(F)(F)C2)CCC3)cc1 [Example 346, (5S)-5-[(3,3-Difluoropyrrolidin-1-yl)carbonyl]-2-[2-(4-methoxyphenyl)ethyl]-5,6,7,8-tetrahydro[1,2,4]triazolo[4,3-a]pyridin-3(2H)-one]"
11,3.3,"CC(c1ccc(C(F)(F)F)nc1)n1nc2n(c1=O)[C@H](C(=O)N1C[C@@H](F)[C@@H](F)C1)CCC2 (single isomer, unassigned) [Example 218]"
12,980,"CC1CCC(C(=O)N2CC[C@H](F)C2)n2c1nn(Cc1ccc(C(F)(F)F)nc1)c2=O (single isomer, unassigned) [Example 221]"
13,56.5,"O=C(C1CCc2nn(Cc3ccc(C(F)(F)F)nc3)c(=O)n21)N1CCC(F)(F)C1 (racemic) [Example 167, (5RS)-5-[(3,3-Difluoropyrrolidin-1-yl)carbonyl]-2-{[6-(trifluoromethyl)pyridin-3-yl]methyl}-2,5,6,7-tetrahydro-3H-pyrrolo[2,1-c][1,2,4]triazol-3-one]"
14,1.3,"O=C(C1CC(C(F)(F)F)Cc2nn(Cc3ncc(Cl)cc3F)c(=O)n21)N1CC[C@H](F)C1 (single isomer, unassigned) [Example 265]"
15,0.94,"O=C([C@@H]1C[C@@H](C(F)(F)F)Cc2nn(Cc3ccc(C(F)(F)F)nc3)c(=O)n21)N1CC[C@H](F)C1 (single isomer, unassigned) [Example 237]"
16,0.49,"O=C([C@@H]1CCCc2nn(Cc3ccc(F)c(F)c3)c(=O)n21)N1C[C@@H](F)[C@@H](F)C1 [Example 467, (5S)-2-(3,4-Difluorobenzyl)-5-{[(3R,4S)-3,4-difluoropyrrolidin-1-yl]carbonyl}-5,6,7,8-tetrahydro[1,2,4]triazolo[4,3-a]pyridin-3(2H)-one]"
17,0.46,"Cc1nc(C)c(Cn2nc3n(c2=O)C(C(=O)N2CCCC2)CCC3)nc1C (single isomer, unassigned) [Example 104, (5RS)-5-(Pyrrolidin-1-ylcarbonyl)-2-[(3,5,6-trimethylpyrazin-2-yl)methyl]-5,6,7,8-tetrahydro[1,2,4]triazolo[4,3-a]pyridin-3(2H)-one]"
18,19.5,"O=C(C1C(C(F)(F)F)CCc2nn(Cc3ccc(Cl)cn3)c(=O)n21)N1C[C@@H](F)[C@@H](F)C1 (single isomer, unassigned) [Example 301]"
19,5.9,"O=C(C1CCC(C(F)(F)F)c2nn(Cc3ncccc3F)c(=O)n21)N1C[C@@H](F)[C@@H](F)C1 (mixture of isomers) [Example 274, (5RS,8RS)-5-{[(3R,4S)-3,4-Difluoropyrrolidin-1-yl]carbonyl}-2-[(3-fluoropyridin-2-yl)methyl]-8-(trifluoromethyl)-5,6,7,8-tetrahydro[1,2,4]triazolo[4,3-a]pyridin-3(2H)-one]"
20,8.7,"O=C(C1CC(C(F)(F)F)Cc2nn(Cc3ncc(F)cc3Cl)c(=O)n21)N1CCC(F)(F)C1 (single isomer, unassigned) [Example 576, (5RS,7RS)-2-[(3-Chloro-5-fluoropyridin-2-yl)methyl]-5-[(3,3-difluoropyrrolidin-1-yl)carbonyl]-7-(trifluoromethyl)-5,6,7,8-tetrahydro[1,2,4]triazolo[4,3-a]pyridin-3(2H)-one]"
21,0.15,"O=C([C@@H]1CCCc2nn(Cc3ccc(F)cc3F)c(=O)n21)N1CC[C@H](F)C1 [Example 488, (5S)-2-(2,4-Difluorobenzyl)-5-{[(3S)-3-fluoropyrrolidin-1-yl]carbonyl}-5,6,7,8-tetrahydro[1,2,4]triazolo[4,3-a]pyridin-3(2H)-one]"
22,35,"O=C([C@@H]1CCCc2nn(Cc3ccc(C(F)(F)F)nc3)c(=O)n21)N1CC[C@H](O)C1 [Example 425, (5S)-5-{[(3S)-3-Hydroxypyrrolidin-1-yl]carbonyl}-2-{[6-(trifluoromethyl)pyridin-3-yl]methyl}-5,6,7,8-tetrahydro[1,2,4]triazolo[4,3-a]pyridin-3(2H)-one]"
23,0.43,"O=C([C@@H]1CCC(O)c2nn(Cc3ncc(F)cc3F)c(=O)n21)N1CC[C@H](F)C1 (mixture of isomers) [Example 585, (5S,8SR)-2-[(3,5-Difluoropyridin-2-yl)methyl]-5-{[(3S)-3-fluoropyrrolidin-1-yl]carbonyl}-8-hydroxy-5,6,7,8-tetrahydro[1,2,4]triazolo[4,3-a]pyridin-3(2H)-one]"
24,51.5,"O=C([C@@H]1CCCc2nn(Cc3cc(C(F)(F)F)c(Cl)cn3)c(=O)n21)N1CC[C@H](O)C1 [Example 374, (5S)-2-{[5-Chloro-4-(trifluoromethyl)pyridin-2-yl]methyl}-5-{[(3S)-3-hydroxypyrrolidin-1-yl]carbonyl}-5,6,7,8-tetrahydro[1,2,4]triazolo[4,3-a]pyridin-3(2H)-one]"
25,1.35,"O=C([C@@H]1CCCc2nn(Cc3ncc(Cl)cc3F)c(=O)n21)N1CC(F)C1 [Example 407, (5S)-2-[(5-Chloro-3-fluoropyridin-2-yl)methyl]-5-[(3-fluoroazetidin-1-yl)carbonyl]-5,6,7,8-tetrahydro[1,2,4]triazolo[4,3-a]pyridin-3(2H)-one]"
26,102,"O=C([C@@H]1CCCc2nn(Cc3ccnc(C(F)(F)F)c3F)c(=O)n21)N1CC2CC1C2 [Example 187, (5S)-5-(2-Azabicyclo[2.1.1]hex-2-ylcarbonyl)-2-{[3-fluoro-2-(trifluoromethyl)pyridin-4-yl]methyl}-5,6,7,8-tetrahydro[1,2,4]triazolo[4,3-a]pyridin-3(2H)-one]"
27,14,"Cc1ccc(Cn2nc3n(c2=O)C(C(=O)N2CC(C(F)(F)F)C2)CCC3)cc1 (racemic) [Example 124, (5RS)-2-(4-Methylbenzyl)-5-{[3-(trifluoromethyl)azetidin-1-yl]carbonyl}-5,6,7,8-tetrahydro[1,2,4]triazolo[4,3-a]pyridin-3(2H)-one]"
